The values that follow come from US20240208934A1, “ULK1/2 INHIBITORS AND THEIR USE THEREOF” (LifeArc, priority 2021, published 2024).

The test system of this assay is ULK. The assay is described as follows: ULK radiometric assay (33P incorporation onto MBP substrate, glass fiber capture filter). The settings on record: ULK Biochemical activity; 20 uM ATP, 0.2 mg/mL MBP; averages of at least two independent experiments. How it is done:
ULK activity was measured using a radiometric assay, to measure the incorporation of radiolabelled ^33P onto MBP substrate using a glass fiber capture filter method. Reaction conditions were 0.2 mg/mL MBP, 20 uM ATP (0.25 μCi/well), 50 mM Tris HCl, pH7.5, 10 mM MgCl2, 0.1% beta-mercaptoethanol, 0.1 mM EGTA, 0.01% BSA. Ten point Half log Compound dilution series were prepared in 100% DMSO and added to the reaction to give final assay concentration of 10% DMSO. Compounds were tested in duplicate and values normalized to 10% DMSO only controls. The data were fitted to a four parameter fit equation and the IC50 values shown are averages of at least two independent experiments.

`O=C1CCCCN1CCCNc1nc(Nc2cc(OC3CCNCC3)ccc2Cl)ncc1C(F)(F)F` [Example 44, 1-[3-[[2-[2-Chloro-5-(4-piperidyloxy)anilino]-5-(trifluoromethyl)pyrimidin-4-yl]amino]propyl]piperidin-2-one] yielded a 50% inhibitory concentration (IC50) of 200 to 1000 nM.

With `COc1cc2c(cc1Nc1ncc(C(F)(F)F)c(NCCCN3CCCCC3=O)n1)CNCC2` [Example 20, 1-[3-[[2-[(6-Methoxy-1,2,3,4-tetrahydroisoquinolin-7-yl)amino]-5-(trifluoromethyl)pyrimidin-4-yl]amino]propyl]piperidin-2-one], the IC50 was under 200 nM.

Turning to `O=C(CCNc1nc(Nc2cccc(OC3CCNCC3)c2)ncc1C(F)(F)F)N1CCOCC1` [Example 80, 1-Morpholino-3-[[2-[3-(4-piperidyloxy)anilino]-5-(trifluoromethyl)pyrimidin-4-yl]amino]propan-1-one], the IC50 fell in the range of 200 to 1000 nM.

The compound `O=C1CCCCN1CCCNc1nc(Nc2ccc3c(c2)CCNC3)ncc1C(F)(F)F` [Example 19, 1-[3-[[2-(1,2,3,4-Tetrahydroisoquinolin-6-ylamino)-5-(trifluoromethyl)pyrimidin-4-yl]amino]propyl]piperidin-2-one] gave an IC50 of under 200 nM.

Take `CCOc1nn(C)cc1Nc1ncc(C(F)(F)F)c(NCCCN2CCCCC2=O)n1` [Example 46, 1-[3-[[2-[(3-Ethoxy-1-methyl-pyrazol-4-yl)amino]-5-(trifluoromethyl)pyrimidin-4-yl]amino]propyl]piperidin-2-one]: the IC50 was 200 to 1000 nM.

As to `O=C1CCCN1CCCNc1nc(Nc2ccc3c(c2)CNCC3)ncc1C(F)(F)F` [Example 77, 1-[3-[[2-(1,2,3,4-Tetrahydroisoquinolin-7-ylamino)-5-(trifluoromethyl)pyrimidin-4-yl]amino]propyl]pyrrolidin-2-one], the IC50 was at least 1000 nM.

The compound `CCN(CC)C(=O)C1CCCN(c2nc(Nc3cc4c(cc3OC)CCNC4)ncc2C(F)(F)F)C1` (stereo not shown) [Example 69, N,N-diethyl-1-[2-[(6-methoxy-1,2,3,4-tetrahydroisoquinolin-7-yl)amino]-5-(trifluoromethyl)pyrimidin-4-yl]piperidine-3-carboxamide] registered an IC50 of at least 1000 nM.

With `O=C1CCCCN1CCCNc1nc(Nc2ccc3c(c2)COCC3)ncc1C(F)(F)F` [Example 25, 1-[3-[[2-(Isochroman-7-ylamino)-5-(trifluoromethyl)pyrimidin-4-yl]amino]propyl]piperidin-2-one], the IC50 was under 200 nM.

For `FC(F)(F)c1cnc(Nc2ccc(N3CCOCC3)cc2)nc1NCC1CCNC1` (stereo not shown) [Example 87, N2-(4-morpholinophenyl)-N4-(pyrrolidin-3-ylmethyl)-5-(trifluoromethyl)pyrimidine-2,4-diamine], the IC50 was in the range of 200 to 1000 nM.

With `COc1cc2c(cc1Nc1ncc(C(F)(F)F)c(NCCCn3cccn3)n1)CNCC2` [Example 73, N2-(6-methoxy-1,2,3,4-tetrahydroisoquinolin-7-yl)-N4-(3-pyrazol-1-ylpropyl)-5-(trifluoromethyl)pyrimidine-2,4-diamine], the IC50 is at least 1000 nM.

`COc1cc2c(cc1Nc1ncc(C(F)(F)F)c(NCCCN3CCCCC3=O)n1)CCNC2` [Example 4, 1-(3-((2-((7-Methoxy-1,2,3,4-tetrahydroisoquinolin-6-yl)amino)-5-(trifluoromethyl)pyrimidin-4-yl)amino)propyl)piperidin-2-one] registered an IC50 of under 200 nM.

Take `CNCc1ccc(OC)c(Nc2ncc(C(F)(F)F)c(NCCCN3CCCCC3=O)n2)c1` [Example 60, 1-[3-[[2-[2-Methoxy-5-(methylaminomethyl)anilino]-5-(trifluoromethyl)pyrimidin-4-yl]amino]propyl]piperidin-2-one]: the IC50 was under 200 nM.

Compound `COc1cc2c(cc1Nc1ncc(C(F)(F)F)c(NCCCN3CCCCC3=O)n1)C(=O)NCC2` [Example 33, 6-Methoxy-7-[[4-[3-(2-oxo-1-piperidyl)propylamino]-5-(trifluoromethyl)pyrimidin-2-yl]amino]-3,4-dihydro-2H-isoquinolin-1-one] showed an IC50 of at least 1000 nM.

Turning to `CC(C)Oc1nn(C)cc1Nc1ncc(C(F)(F)F)c(NCCCN2CCCCC2=O)n1` [Example 49, 1-[3-[[2-[(3-Isopropoxy-1-methyl-pyrazol-4-yl)amino]-5-(trifluoromethyl)pyrimidin-4-yl]amino]propyl]piperidin-2-one], the IC50 was at least 1000 nM.

In the case of `Fc1cccc(Nc2ncc(C(F)(F)F)c(NCCCN3CCCC3)n2)c1` [Example 5, N2-(3-fluorophenyl)-N4-(3-(pyrrolidin-1-yl)propyl)-5-(trifluoromethyl)pyrimidine-2,4-diamine], the half-inhibitory concentration (IC50) was at least 1000 nM.

On to `CN(C)CCOc1ccc(Cl)c(Nc2ncc(C(F)(F)F)c(NCCCN3CCCCC3=O)n2)c1` [Example 58, 1-[3-[[2-[2-Chloro-5-[2-(dimethylamino)ethoxy]anilino]-5-(trifluoromethyl)pyrimidin-4-yl]amino]propyl]piperidin-2-one], for which the IC50 was 200 to 1000 nM.

As for `COc1cc(C(=O)O)ccc1Nc1ncc(C(F)(F)F)c(NCCCN2CCCCC2=O)n1` [Example 36, 3-Methoxy-4-[[4-[3-(2-oxo-1-piperidyl)propylamino]-5-(trifluoromethyl)pyrimidin-2-yl]amino]benzoic acid], the IC50 is at least 1000 nM.

`CN1CCC(Oc2cccc(Nc3ncc(C4CC4)c(NCCCN4CCCCC4=O)n3)c2)CC1` [Example 16, 1-(3-((5-Cyclopropyl-2-((3-((1-methylpiperidin-4-yl)oxy)phenyl)amino)pyrimidin-4-yl)amino)propyl)piperidin-2-one] came in with an IC50 of under 200 nM.

`Cn1cc(Nc2ncc(C(F)(F)F)c(NCCCN3CCCCC3=O)n2)c(OCC(F)(F)F)n1` [Example 48, 1-[3-[[2-[[1-Methyl-3-(2,2,2-trifluoroethoxy)pyrazol-4-yl]amino]-5-(trifluoromethyl)pyrimidin-4-yl]amino]propyl]piperidin-2-one] came in with an IC50 of 200 to 1000 nM.

Compound `N[C@H]1CC[C@H](Nc2nc(Nc3ccc(N4CCOCC4)cc3)ncc2C(F)(F)F)CC1` [Example 88, N4-(4-aminocyclohexyl)-N2-(4-morpholinophenyl)-5-(trifluoromethyl)pyrimidine-2,4-diamine] showed an IC50 of 200 to 1000 nM.

Compound `COc1cc(C(=O)N2CCOCC2)ccc1Nc1ncc(C(F)(F)F)c(NCCCN2CCCCC2=O)n1` [Example 38, 1-[3-[[2-[2-Methoxy-4-(morpholine-4-carbonyl)anilino]-5-(trifluoromethyl)pyrimidin-4-yl]amino]propyl]piperidin-2-one] showed an IC50 of at least 1000 nM.

Turning to `CN(C)CCCNc1nc(Nc2cccc(OC3CCN(C)CC3)c2)ncc1C1CC1` [Example 84, 5-Cyclopropyl-N4-(3-(dimethylamino)propyl)-N2-(3-(1-methylpiperidin-4-yloxy)phenyl)pyrimidine-2,4-diamine], the IC50 was at least 1000 nM.

As to `COc1cc2c(cc1Nc1ncc(C(F)(F)F)c(NCCCN3CCCCC3=O)n1)CN(C)CC2` [Example 24, 1-[3-[[2-[(6-Methoxy-2-methyl-3,4-dihydro-1H-isoquinolin-7-yl)amino]-5-(trifluoromethyl)pyrimidin-4-yl]amino]propyl]piperidin-2-one], the IC50 is under 200 nM.

For `COc1ccc(N2CCOCC2)cc1Nc1ncc(C(F)(F)F)c(NCCCN2CCCCC2=O)n1` [Example 32, 1-[3-[[2-(2-Methoxy-5-morpholino-anilino)-5-(trifluoromethyl)pyrimidin-4-yl]amino]propyl]piperidin-2-one], the concentration for half-maximal inhibition (IC50) is at least 1000 nM.

Take `COc1cc2c(cc1Nc1ncc(C(F)(F)F)c(NCCCn3ccnc3)n1)CNCC2` [Example 70, N4-(3-imidazol-1-ylpropyl)-N2-(6-methoxy-1,2,3,4-tetrahydroisoquinolin-7-yl)-5-(trifluoromethyl)pyrimidine-2,4-diamine]: the IC50 fell in the range of 200 to 1000 nM.

As to `O=C(NCCCNc1nc(Nc2ccc3c(c2)CCNC3)ncc1C(F)(F)F)C1CCC1` [Example 62, N-(3-((2-((1,2,3,4-tetrahydroisoquinolin-6-yl)amino)-5-(trifluoromethyl)pyrimidin-4-yl)amino)propyl)cyclobutanecarboxamide], the IC50 was under 200 nM.

`FC(F)(F)c1cnc(Nc2cnn(C3CCNC3)c2)nc1NCc1cc[nH]n1` (stereo not shown) [Example 85, N4-(1H-pyrazol-3-ylmethyl)-N2-(1-pyrrolidin-3-ylpyrazol-4-yl)-5-(trifluoromethyl)pyrimidine-2,4-diamine] had an IC50 of under 200 nM.

`O=C1CCCCN1CCCNc1nc(Nc2cc(OCCN3CCOCC3)ccc2Cl)ncc1C(F)(F)F` [Example 59, 1-[3-[[2-[2-Chloro-5-(2-morpholinoethoxy)anilino]-5-(trifluoromethyl)pyrimidin-4-yl]amino]propyl]piperidin-2-one]: the IC50 lay in the range of 200 to 1000 nM.

The compound `FC(F)(F)c1cnc(Nc2ccc3c(c2)CCNC3)nc1NCCc1cnc[nH]1` [Example 65, N4-[2-(1H-imidazol-5-yl)ethyl]-N2-(1,2,3,4-tetrahydroisoquinolin-6-yl)-5-(trifluoromethyl)pyrimidine-2,4-diamine] returned an IC50 of under 200 nM.

`COc1nn(C)cc1Nc1ncc(C(F)(F)F)c(NCCCN2CCCCC2=O)n1` [Example 27, 1-[3-[[2-[(3-Methoxy-1-methyl-pyrazol-4-yl)amino]-5-(trifluoromethyl)pyrimidin-4-yl]amino]propyl]piperidin-2-one]: the IC50 is under 200 nM.

Regarding `CN1CCc2ccc(Nc3ncc(C4CC4)c(NCCCN4CCCC4=O)n3)cc2C1` [Example 10, 1-(3-((5-Cyclopropyl-2-((2-methyl-1,2,3,4-tetrahydroisoquinolin-7-yl)amino)pyrimidin-4-yl)amino)propyl)pyrrolidin-2-one], the IC50 is under 200 nM.
